Several values for one entry are separate records, joined by “and”; a condition that tells them apart may be missing. Identical values can stand only once. Toxic doses and inconclusive results are not listed. The calls were made as follows: active = survival T/C of 150% or more; inactive = T/C below 125% in these data.
System: P388 leukemia ip, CD2F1 mice, survival T/C
Test: NCI In Vivo Anticancer Drug Screen. Data for tumor model P388 Leukemia (intraperitoneal) in CD2F1 (CDF1) mice
Settings: endpoint: median survival time, higher = longer survival
Summary of the method: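 Mice carrying the transplanted tumor received test compound or vehicle. Survival was recorded in each group, and the value is the treated-group measurement divided by that of the vehicle-treated control group.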

[1] = dose: 50.0 mg/kg/injection, schedule: Q01DX005 (ip), vehicle: saline with Tween-80
[2] = dose: 100.0 mg/kg/injection, schedule: Q01DX005 (ip), vehicle: saline with Tween-80
[3] = dose: 200.0 mg/kg/injection, schedule: Q01DX005 (ip), vehicle: saline with Tween-80
[4] = dose: 50.0 mg/kg/injection, schedule: Q01DX005 (ip), vehicle: Klucel (hydroxypropylcellulose) (HPC)
[5] = dose: 100.0 mg/kg/injection, schedule: Q01DX005 (ip), vehicle: Klucel (hydroxypropylcellulose) (HPC)
[6] = dose: 200.0 mg/kg/injection, schedule: Q01DX005 (ip), vehicle: Klucel (hydroxypropylcellulose) (HPC)
[7] = dose: 50.0 mg/kg/injection, schedule: Q01DX009 (ip), vehicle: saline with Tween-80
[8] = dose: 100.0 mg/kg/injection, schedule: Q01DX009 (ip), vehicle: saline with Tween-80
[9] = dose: 200.0 mg/kg/injection, schedule: Q01DX009 (ip), vehicle: saline with Tween-80
[10] = dose: 12.5 mg/kg/injection, schedule: Q01DX009 (ip), vehicle: suspension in saline
[11] = dose: 25.0 mg/kg/injection, schedule: Q01DX009 (ip), vehicle: suspension in saline
[12] = dose: 50.0 mg/kg/injection, schedule: Q01DX009 (ip), vehicle: suspension in saline

Measured: T/C

COC(=O)C(C)NC(=O)c1c2nc3c(C(=O)NC(C)C(=O)OC)ccc(C)c3oc-2c(C)c(=O)c1N (stereo not given)
inactive: dose: 3.12 mg/kg/injection, schedule: Q01DX005 (ip), vehicle: distilled water + Tween-80 100 % of control | dose: 3.12 mg/kg/injection, schedule: Q01DX005 (ip), vehicle: saline with Tween-80 98 % of control | dose: 6.25 mg/kg/injection, schedule: Q01DX005 (ip), vehicle: distilled water + Tween-80 100 % of control and 102 % of control | dose: 6.25 mg/kg/injection, schedule: Q01DX005 (ip), vehicle: saline with Tween-80 97 % of control | dose: 12.5 mg/kg/injection, schedule: Q01DX005 (ip), vehicle: distilled water + Tween-80 96 % of control | dose: 12.5 mg/kg/injection, schedule: Q01DX005 (ip), vehicle: saline with Tween-80 87 % of control and 92 % of control | dose: 25.0 mg/kg/injection, schedule: Q01DX005 (ip), vehicle: distilled water + Tween-80 89 % of control and 94 % of control | dose: 50.0 mg/kg/injection, schedule: Q01DX005 (ip), vehicle: distilled water + Tween-80 90 % of control | [1] 89 % of control | [2] 89 % of control | [3] 92 % of control

Cc1c2c(C(N)=O)nccc2c(C)c2c1c1ccccc1n2Cc1ccccc1
inactive: dose: 1.56 mg/kg/injection, schedule: Q04DX003 (ip), vehicle: distilled water + Tween-80 89 % of control | dose: 3.13 mg/kg/injection, schedule: Q04DX003 (ip), vehicle: distilled water + Tween-80 89 % of control | dose: 12.5 mg/kg/injection, schedule: Q04DX003 (ip), vehicle: distilled water + Tween-80 86 % of control | dose: 25.0 mg/kg/injection, schedule: Q04DX003 (ip), vehicle: distilled water + Tween-80 87 % of control | dose: 50.0 mg/kg/injection, schedule: Q04DX003 (ip), vehicle: distilled water + Tween-80 100 % of control | dose: 100.0 mg/kg/injection, schedule: Q04DX003 (ip), vehicle: distilled water + Tween-80 95 % of control | dose: 200.0 mg/kg/injection, schedule: Q04DX003 (ip), vehicle: distilled water + Tween-80 101 % of control

CC1(C)c2c3ccccc3cc3cccc(c23)[S+]1c1ccccc1 (stereo not given)
inactive: dose: 5.0 mg/kg/injection, schedule: Q04DX003 (ip), vehicle: saline 100 % of control | dose: 10.0 mg/kg/injection, schedule: Q04DX003 (ip), vehicle: saline 104 % of control | dose: 20.0 mg/kg/injection, schedule: Q04DX003 (ip), vehicle: saline 108 % of control

O=C(O)C(Cl)Cc1cnc[nH]1 (stereo not given)
inactive: dose: 100.0 mg/kg/injection, schedule: Q04DX003 (ip), vehicle: saline 103 % of control | dose: 200.0 mg/kg/injection, schedule: Q04DX003 (ip), vehicle: saline 91 % of control | dose: 400.0 mg/kg/injection, schedule: Q04DX003 (ip), vehicle: saline 91 % of control

Cc1ncc(Br)c(C(=O)N=C(N)N)n1
inactive: [4] 95 % of control | [5] 100 % of control | [6] 94 % of control

CSCNC(=S)Nc1ccc(Cl)c(Cl)c1
inactive: [7] 100 % of control | [8] 107 % of control

Cc1ccsc1C(=O)c1ccccc1
inactive: [4] 99 % of control | [5] 94 % of control | [6] 96 % of control

O=C(CC(O)(C(F)(F)F)C(F)(F)F)c1cc(CC(=O)C(O)(C(F)(F)F)C(F)(F)F)cc(CC(=O)C(O)(C(F)(F)F)C(F)(F)F)c1
inactive: dose: 25.0 mg/kg/injection, schedule: Q01DX009 (ip), vehicle: saline with Tween-80 97 % of control | [7] 103 % of control | [8] 100 % of control | [9] 105 % of control | dose: 400.0 mg/kg/injection, schedule: Q01DX009 (ip), vehicle: saline with Tween-80 115 % of control

CCOC(=O)Cc1csc2nc(-c3ccccc3)cn12
inactive: dose: 60.0 mg/kg/injection, schedule: Q01DX005 (ip), vehicle: saline with Tween-80 115 % of control | dose: 120.0 mg/kg/injection, schedule: Q01DX005 (ip), vehicle: saline with Tween-80 104 % of control | dose: 240.0 mg/kg/injection, schedule: Q01DX005 (ip), vehicle: saline with Tween-80 106 % of control

COC(=O)c1cc2c(C(=O)OC)cc1CSCc1cccc(c1)CSC2
inactive: [10] 90 % of control | [11] 87 % of control | [12] 97 % of control

NC(=O)C(F)C(N)C(=O)O (stereo not given)
inactive: [10] 100 % of control | [11] 103 % of control | [12] 97 % of control

Fc1cc(F)c(F)c(OCC2CO2)c1F (stereo not given)
inactive: [7] 100 % of control | [8] 94 % of control | [9] 101 % of control

O=C(NC(CSSCC(NC(=O)c1ccc([N+](=O)[O-])cc1)C(=O)O)C(=O)O)c1ccc([N+](=O)[O-])cc1 (stereo not given)
inactive: [1] 108 % of control | [2] 101 % of control | [3] 109 % of control

CC(C)c1oc(=O)cc2c1C(O)C1OC(=O)C3(C)C(O)C4OC4C2(C)C13 (stereo not given)
inactive: dose: 15.0 mg/kg/injection, schedule: Q01DX005 (ip), vehicle: Klucel (hydroxypropylcellulose) (HPC) 103 % of control and 105 % of control | dose: 30.0 mg/kg/injection, schedule: Q01DX005 (ip), vehicle: Klucel (hydroxypropylcellulose) (HPC) 103 % of control and 107 % of control | dose: 60.0 mg/kg/injection, schedule: Q01DX005 (ip), vehicle: Klucel (hydroxypropylcellulose) (HPC) 120 % of control | dose: 120.0 mg/kg/injection, schedule: Q01DX005 (ip), vehicle: Klucel (hydroxypropylcellulose) (HPC) 111 % of control

CS(=O)(=O)c1cc([N+](=O)[O-])cc([N+](=O)[O-])c1Cl
inactive: dose: 2.5 mg/kg/injection, schedule: Q01DX009 (ip), vehicle: saline with Tween-80 109 % of control | dose: 5.0 mg/kg/injection, schedule: Q01DX009 (ip), vehicle: saline with Tween-80 90 % of control

Nc1ccc(-c2nnc(-c3ccc(N)cc3)nn2)cc1
inactive: dose: 100.0 mg/kg/injection, schedule: Q01DX001 (ip), vehicle: saline 94 % of control | dose: 200.0 mg/kg/injection, schedule: Q01DX001 (ip), vehicle: saline 92 % of control | dose: 400.0 mg/kg/injection, schedule: Q01DX001 (ip), vehicle: saline 95 % of control

O=C(c1cc2c(cc1Br)OCO2)N1CCCc2ccccc21
inactive: dose: 25.0 mg/kg/injection, schedule: Q01DX009 (ip), vehicle: other 100 % of control | dose: 50.0 mg/kg/injection, schedule: Q01DX009 (ip), vehicle: other 97 % of control | dose: 100.0 mg/kg/injection, schedule: Q01DX009 (ip), vehicle: other 102 % of control | dose: 200.0 mg/kg/injection, schedule: Q01DX009 (ip), vehicle: other 97 % of control | dose: 400.0 mg/kg/injection, schedule: Q01DX009 (ip), vehicle: other 93 % of control

Oc1cccnc1
inactive: dose: 25.0 mg/kg/injection, schedule: Q01DX009 (ip), vehicle: saline 100 % of control and 103 % of control | dose: 50.0 mg/kg/injection, schedule: Q01DX009 (ip), vehicle: saline 99 % of control and 102 % of control | dose: 100.0 mg/kg/injection, schedule: Q01DX009 (ip), vehicle: saline 102 % of control and 103 % of control | dose: 200.0 mg/kg/injection, schedule: Q01DX009 (ip), vehicle: saline 103 % of control and 112 % of control | dose: 400.0 mg/kg/injection, schedule: Q01DX009 (ip), vehicle: saline 100 % of control and 108 % of control | dose: 600.0 mg/kg/injection, schedule: Q01DX009 (ip), vehicle: saline 102 % of control and 111 % of control

O=C(O)c1ccc(Cn2ccc(=O)[nH]c2=O)cc1
inactive: dose: 100.0 mg/kg/injection, schedule: Q01DX001 (ip), vehicle: saline with Tween-80 100 % of control | dose: 200.0 mg/kg/injection, schedule: Q01DX001 (ip), vehicle: saline with Tween-80 100 % of control | dose: 400.0 mg/kg/injection, schedule: Q01DX001 (ip), vehicle: saline with Tween-80 100 % of control
